Source: patent US9151757B2, “Detecting antigen responsive cells in a sample” (Stichting Sanquin Bloedvoorziening, priority 2008, dated 2015)

What follows are sequences tested on CD8+ T cells in PBMCs (assay: Combinatorial coding MHC multimer flow cytometry of enriched, in vitro expanded PBMCs). Settings: enriched PBMCs from 27 HLA-A3 positive melanoma patients, after MACS enrichment and short term in vitro expansion.
Format: cell-based, human
In the case of HAYIQSLLK (listed as Homo sapiens), the “CD8+ T cell responses against peptide detected by dual color-encoded pMHC multimer staining” value (“CD8+ T cell responses” for short) is reported as “CD8^+ T cell responses were observed”. In the case of “GTYEGLLRR (listed as Homo sapiens) [Tyrp2 301-309, unknown HLA-A3 associated T cell antigen]”, the “CD8+ T cell responses” value is reported as “identification of the unknown HLA-A3 associated T cells antigens”. In the case of SLYRDPLPR (listed as Homo sapiens), the “CD8+ T cell responses” value is reported as “CD8^+ T cell responses were observed”. RMYNMVPFF (listed as Homo sapiens) was tested, and the “CD8+ T cell responses” value was “CD8^+ T cell responses were observed”. For QLRALDGGNK (listed as Homo sapiens), the “CD8+ T cell responses” value was “CD8^+ T cell responses were observed”.
